From the supplement of paper PMC10307832

What was measured:
Assay in all cases: relative viability (nuclei count vs DMSO), 5 days (fraction); higher = more cells survive
NCI-H1651 = tested on: NCI-H1651
How it was run: (§1)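 Lung cancer cell lines, seeded in 1536-well plates, were treated the following day by pin tool with a single drug or with five library-drug doses (not always all listed) in √10 steps on top of a fixed anchor-drug dose. Cells were fixed and nuclei stained in one step after 5 days, and nuclei were counted. Relative viability is the nuclei count for treated wells divided by that for vehicle wells, reported as medians of duplicate plates.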

NCI-H596 = tested on: NCI-H596
How it was run: as §1

NCI-H650 = tested on: NCI-H650
How it was run: as §1

NCI-H1944 = tested on: NCI-H1944
How it was run: as §1

NCI-H2023 = tested on: NCI-H2023
How it was run: as §1

NCI-H460 = tested on: NCI-H460
How it was run: as §1

ABC-1 = tested on: ABC-1
How it was run: as §1

LCLC-97TM1 = tested on: LCLC-97TM1
How it was run: as §1

NCI-H727 = tested on: NCI-H727
How it was run: as §1

H3255 = tested on: H3255
How it was run: as §1

CAL-12T = tested on: CAL-12T
How it was run: as §1

PC-3 [JPC-3] = tested on: PC-3 [JPC-3]
How it was run: as §1

BEN = tested on: BEN
How it was run: as §1

NCI-H441 = tested on: NCI-H441
How it was run: as §1

NCI-H661 = tested on: NCI-H661
How it was run: as §1

NCI-H1650 = tested on: NCI-H1650
How it was run: as §1

A-427 = tested on: A-427
How it was run: as §1

NCI-H2087 = tested on: NCI-H2087
How it was run: as §1

NCI-H520 = tested on: NCI-H520
How it was run: as §1

NCI-H1915 = tested on: NCI-H1915
How it was run: as §1

LC-2-ad = tested on: LC-2-ad
How it was run: as §1

201T = tested on: 201T
How it was run: as §1

In the case of `CC(=O)O[C@@]12CO[C@@H]1C[C@H](O)[C@@]1(C)C(=O)[C@H](O)C3=C(C)[C@@H](OC(=O)[C@H](O)[C@@H](NC(=O)OC(C)(C)C)c4ccccc4)C[C@@](O)([C@@H](OC(=O)c4ccccc4)[C@H]21)C3(C)C` [Docetaxel] + COc1cccc2cc(-c3nc([C@H]4CC[C@H](C(=O)O)CC4)n4ncnc(N)c34)[nH]c12 [OSI-027] (partner 0.5 µM), the relative viability (NCI-H1651; first compound 0.0002 µM) is reported as 0.627, the relative viability (NCI-H1651; first compound 0.000632 µM) is reported as 0.783 and the relative viability (NCI-H1651; first compound 0.002 µM) is reported as 0.38. The relative viability (NCI-H1651; first compound 0.006325 µM) was 0.14, the relative viability (NCI-H1651; first compound 0.02 µM) was 0.0753 and the relative viability (NCI-H596; first compound 0.0002 µM) was 0.805. For the same molecule, the relative viability (NCI-H596; first compound 0.000632 µM) was 0.767, the relative viability (NCI-H596; first compound 0.002 µM) was 0.505 and the relative viability (NCI-H596; first compound 0.006325 µM) was 0.372. For the same molecule, the relative viability (NCI-H596; first compound 0.02 µM) was 0.241, the relative viability (NCI-H650; first compound 0.0002 µM) was 0.436 and the relative viability (NCI-H650; first compound 0.000632 µM) was 0.375. It also gave a relative viability (NCI-H650; first compound 0.002 µM) of 0.266, a relative viability (NCI-H650; first compound 0.006325 µM) of 0.265 and a relative viability (NCI-H650; first compound 0.02 µM) of 0.181. It also gave a relative viability (NCI-H1944; first compound 0.0002 µM) of 0.38, a relative viability (NCI-H1944; first compound 0.000632 µM) of 0.423 and a relative viability (NCI-H1944; first compound 0.002 µM) of 0.26. It also gave a relative viability (NCI-H1944; first compound 0.02 µM) of 0.139, a relative viability (NCI-H2023; first compound 0.0002 µM) of 0.341 and a relative viability (NCI-H2023; first compound 0.000632 µM) of 0.339. It also gave a relative viability (NCI-H2023; first compound 0.002 µM) of 0.131, a relative viability (NCI-H2023; first compound 0.006325 µM) of 0.0963 and a relative viability (NCI-H2023; first compound 0.02 µM) of 0.0554. For the same molecule, the relative viability (NCI-H460; first compound 0.0002 µM) was 0.645, the relative viability (NCI-H460; first compound 0.000632 µM) was 0.238 and the relative viability (NCI-H460; first compound 0.002 µM) was 0.0745. For the same molecule, the relative viability (NCI-H460; first compound 0.006325 µM) was 0.0177, the relative viability (NCI-H460; first compound 0.02 µM) was 0.0139 and the relative viability (ABC-1; first compound 0.0002 µM) was 0.443. The relative viability (ABC-1; first compound 0.000632 µM) was 0.562, the relative viability (ABC-1; first compound 0.002 µM) was 0.289 and the relative viability (ABC-1; first compound 0.006325 µM) was 0.178. For the same molecule, the relative viability (ABC-1; first compound 0.02 µM) was 0.186, the relative viability (LCLC-97TM1; first compound 0.0002 µM) was 0.696 and the relative viability (LCLC-97TM1; first compound 0.000632 µM) was 0.603. It also gave a relative viability (LCLC-97TM1; first compound 0.002 µM) of 0.352, a relative viability (LCLC-97TM1; first compound 0.006325 µM) of 0.182 and a relative viability (LCLC-97TM1; first compound 0.02 µM) of 0.118. For the same molecule, the relative viability (NCI-H727; first compound 0.0002 µM) was 0.804, the relative viability (NCI-H727; first compound 0.000632 µM) was 0.615 and the relative viability (NCI-H727; first compound 0.002 µM) was 0.415. It also gave a relative viability (NCI-H727; first compound 0.006325 µM) of 0.544, a relative viability (NCI-H727; first compound 0.02 µM) of 0.361 and a relative viability (H3255; first compound 0.0002 µM) of 0.66. It also gave a relative viability (H3255; first compound 0.000632 µM) of 0.67, a relative viability (H3255; first compound 0.002 µM) of 0.51 and a relative viability (H3255; first compound 0.006325 µM) of 0.369. It also gave a relative viability (H3255; first compound 0.02 µM) of 0.277, a relative viability (CAL-12T; first compound 0.0002 µM) of 0.44 and a relative viability (CAL-12T; first compound 0.000632 µM) of 0.272. The relative viability (CAL-12T; first compound 0.002 µM) was 0.186, the relative viability (CAL-12T; first compound 0.02 µM) was 0.111 and the relative viability (PC-3 [JPC-3]; first compound 0.0002 µM) was 0.703. For the same molecule, the relative viability (PC-3 [JPC-3]; first compound 0.000632 µM) was 0.79, the relative viability (PC-3 [JPC-3]; first compound 0.002 µM) was 0.441 and the relative viability (PC-3 [JPC-3]; first compound 0.02 µM) was 0.15. It also gave a relative viability (BEN; first compound 0.0002 µM) of 0.283, a relative viability (BEN; first compound 0.000632 µM) of 0.285 and a relative viability (BEN; first compound 0.002 µM) of 0.241. For the same molecule, the relative viability (BEN; first compound 0.006325 µM) was 0.181, the relative viability (BEN; first compound 0.02 µM) was 0.165 and the relative viability (NCI-H441; first compound 0.0002 µM) was 0.654. The relative viability (NCI-H441; first compound 0.000632 µM) was 0.364, the relative viability (NCI-H441; first compound 0.002 µM) was 0.33 and the relative viability (NCI-H441; first compound 0.006325 µM) was 0.288. It also gave a relative viability (NCI-H441; first compound 0.02 µM) of 0.235, a relative viability (NCI-H661; first compound 0.0002 µM) of 0.694 and a relative viability (NCI-H661; first compound 0.000632 µM) of 0.727. It also gave a relative viability (NCI-H661; first compound 0.002 µM) of 0.521, a relative viability (NCI-H661; first compound 0.006325 µM) of 0.29 and a relative viability (NCI-H661; first compound 0.02 µM) of 0.307. It also gave a relative viability (NCI-H1650; first compound 0.0002 µM) of 0.473, a relative viability (NCI-H1650; first compound 0.000632 µM) of 0.301 and a relative viability (NCI-H1650; first compound 0.006325 µM) of 0.188. It also gave a relative viability (NCI-H1650; first compound 0.02 µM) of 0.115, a relative viability (A-427; first compound 0.0002 µM) of 0.465 and a relative viability (A-427; first compound 0.000632 µM) of 0.435. It also gave a relative viability (A-427; first compound 0.002 µM) of 0.224, a relative viability (A-427; first compound 0.006325 µM) of 0.235 and a relative viability (A-427; first compound 0.02 µM) of 0.155. The relative viability (NCI-H2087; first compound 0.0002 µM) was 0.464, the relative viability (NCI-H2087; first compound 0.000632 µM) was 0.359 and the relative viability (NCI-H2087; first compound 0.002 µM) was 0.142. For the same molecule, the relative viability (NCI-H2087; first compound 0.006325 µM) was 0.113, the relative viability (NCI-H2087; first compound 0.02 µM) was 0.111 and the relative viability (NCI-H520; first compound 0.0002 µM) was 0.209. It also gave a relative viability (NCI-H520; first compound 0.000632 µM) of 0.259, a relative viability (NCI-H520; first compound 0.002 µM) of 0.276 and a relative viability (NCI-H520; first compound 0.006325 µM) of 0.257. For the same molecule, the relative viability (NCI-H520; first compound 0.02 µM) was 0.153, the relative viability (NCI-H1915; first compound 0.0002 µM) was 0.603 and the relative viability (NCI-H1915; first compound 0.000632 µM) was 0.505. It also gave a relative viability (NCI-H1915; first compound 0.006325 µM) of 0.224, a relative viability (NCI-H1915; first compound 0.02 µM) of 0.14 and a relative viability (LC-2-ad; first compound 0.0002 µM) of 0.598. It also gave a relative viability (LC-2-ad; first compound 0.000632 µM) of 0.589, a relative viability (LC-2-ad; first compound 0.002 µM) of 0.441 and a relative viability (LC-2-ad; first compound 0.006325 µM) of 0.415. It also gave a relative viability (201T; first compound 0.0002 µM) of 0.528, a relative viability (201T; first compound 0.000632 µM) of 0.442 and a relative viability (201T; first compound 0.002 µM) of 0.258. It also gave a relative viability (201T; first compound 0.006325 µM) of 0.132 and a relative viability (201T; first compound 0.02 µM) of 0.0963.
